# Columns and labels:
# [1] = test system: Pyricularia oryzae Carvara KA301; test: whole plant or invertebrate; format: in vivo; settings: Pyricularia oryzae, read-out: RCB control value (C.V.)
# Phytophthora infestans = test: whole plant or invertebrate; format: in vivo; settings: Phytophthora infestans, in Solanum lycopersicum, read-out: TLB control value (C.V.)
# Erysiphae graminis = test: Fungicidal activity against barley powdery mildew (BPM) disease, control value; format: in vivo; settings: 168 h, read-out: BPM control value (C.V.)
# Puccinia recondita = test: Fungicidal activity against wheat leaf rust (WLR) disease, control value; format: in vivo; settings: Puccinia recondita, read-out: WLR control value (C.V.)
# Rhizoctonia solani AG-1 = test: Fungicidal activity against rice sheath blight (RSB) disease, control value; settings: Rhizoctonia solani, AG1, in Oryza sativa, read-out: RSB control value (C.V.)
# Botrytis cinerae = test: Fungicidal activity against cucumber gray mold rot (CGM) disease, control value; format: in vivo; settings: Botrytis, read-out: CGM control value (C.V.)
Compound,pest or weed control at 2 ppm [1] [%],pest or weed control at 10 ppm [1] [%],pest or weed control at 50 ppm [1] [%],pest or weed control at 100 ppm [1] [%],pest or weed control at 2 ppm (Phytophthora infestans) [%],pest or weed control at 10 ppm (Phytophthora infestans) [%],pest or weed control at 50 ppm (Phytophthora infestans) [%],pest or weed control at 100 ppm (Phytophthora infestans) [%],pest or weed control at 2 ppm (Erysiphae graminis) [%],pest or weed control at 10 ppm (Erysiphae graminis) [%],pest or weed control at 50 ppm (Erysiphae graminis) [%],pest or weed control at 100 ppm (Erysiphae graminis) [%],pest or weed control at 2 ppm (Puccinia recondita) [%],pest or weed control at 10 ppm (Puccinia recondita) [%],pest or weed control at 50 ppm (Puccinia recondita) [%],pest or weed control at 100 ppm (Puccinia recondita) [%],pest or weed control at 2 ppm (Rhizoctonia solani AG-1) [%],pest or weed control at 10 ppm (Rhizoctonia solani AG-1) [%],pest or weed control at 50 ppm (Rhizoctonia solani AG-1) [%],pest or weed control at 100 ppm (Rhizoctonia solani AG-1) [%],other results
"CCOc1cc(C=C(Cl)Cl)ccc1OCc1ccccc1/C(=N\OC)C(=O)NC [Example 60, (E)-2-(2-((4-(2,2-dichlorovinyl)-2-ethoxyphenoxy)methyl)phenyl)-2-methoxyimino-N-methylacetamide]",80,96,100,100,70,92,95,100,95,98,100,100,95,100,100,100,98,100,100,100,pest or weed control at 100 ppm (Botrytis cinerae): 45%
"CO/N=C(/C(=O)OC)c1ccccc1COc1cc(Br)ccc1C=C(Cl)Cl [Example 61, methyl-(E)-2-(2-((5-bromo-2-(2,2-dichlorovinyl)phenoxy)methyl)phenyl)-2-methoxyiminoacetate]",99,100,100,100,99,100,100,100,100,100,100,100,100,100,100,100,95,100,100,100,pest or weed control at 50 ppm (Botrytis cinerae): 40%; pest or weed control at 100 ppm (Botrytis cinerae): 85%
"CNC(=O)/C(=N/OC)c1ccccc1COc1cc(Br)ccc1C=C(Cl)Cl [Example 62, (E)-2-(2-((5-bromo-2-(2,2-dichlorovinyl)phenoxy)methyl)phenyl)-2-methoxyimino-N-methylacetamide]",90,99,100,100,99,100,100,100,99,100,100,100,100,100,100,100,93,100,100,100,pest or weed control at 50 ppm (Botrytis cinerae): 30%; pest or weed control at 100 ppm (Botrytis cinerae): 85%
"CO/N=C(/C(=O)OC)c1ccccc1COc1ccc(C=C(Br)Br)cc1Cl [Example 63, methyl-(E)-2-(2-((4-(2,2-dibromovinyl)-2-chlorophenoxy)methyl)phenyl)-2-methoxyiminoacetate]",100,100,100,100,99,100,100,100,100,100,100,100,100,100,100,100,90,100,100,100,pest or weed control at 50 ppm (Botrytis cinerae): 20%; pest or weed control at 100 ppm (Botrytis cinerae): 75%
"CNC(=O)/C(=N/OC)c1ccccc1COc1ccc(C=C(Br)Br)cc1Cl [Example 64, (E)-2-(2-((4-(2,2-dibromovinyl)-2-chlorophenoxy)methyl)phenyl)-2-methoxyimino-N-methylacetamide]",100,100,100,100,99,100,100,100,97,100,100,100,100,100,100,100,95,100,100,100,pest or weed control at 50 ppm (Botrytis cinerae): 40%; pest or weed control at 100 ppm (Botrytis cinerae): 80%
"CO/N=C(/C(=O)OC)c1ccccc1COc1ccc(C=C(Br)Br)cc1C [Example 65, methyl-(E)-2-(2-((4-(2,2-dibromovinyl)-2-methylphenoxy)methyl)phenyl)-2-methoxyiminoacetate]",100,100,100,100,50,80,100,100,60,95,100,100,100,100,100,100,97,100,100,100,pest or weed control at 100 ppm (Botrytis cinerae): 35%
"CNC(=O)/C(=N/OC)c1ccccc1COc1ccc(C=C(Br)Br)cc1C [Example 66, (E)-2-(2-((4-(2,2-dibromovinyl)-2-methylphenoxy)methyl)phenyl)-2-methoxyimino-N-methylacetamide]",60,90,100,100,75,90,98,100,97,100,100,100,95,100,100,100,65,98,100,100,pest or weed control at 100 ppm (Botrytis cinerae): 45%
"CO/N=C(/C(=O)OC)c1ccccc1COc1cccc(C=C(Br)Br)c1Cl [Example 67, methyl-(E)-2-(2-((3-(2,2-dibromovinyl)-2-chlorophenoxy)methyl)phenyl)-2-methoxyiminoacetate]",100,100,100,100,99,100,100,100,100,100,100,100,100,100,100,100,100,100,100,100,pest or weed control at 50 ppm (Botrytis cinerae): 40%; pest or weed control at 100 ppm (Botrytis cinerae): 85%
"CNC(=O)/C(=N/OC)c1ccccc1COc1cccc(C=C(Br)Br)c1Cl [Example 68, (E)-2-(2-((3-(2,2-dibromovinyl)-2-chlorophenoxy)methyl)phenyl)-2-methoxyimino-N-methylacetamide]",100,100,100,100,100,100,100,100,100,100,100,100,100,100,100,100,100,100,100,100,pest or weed control at 50 ppm (Botrytis cinerae): 20%; pest or weed control at 100 ppm (Botrytis cinerae): 70%
